The source of these data is patent publication US11453671B2, “Pyrazolopyrimidine inhibitors of JAK kinases and uses thereof” (Genentech, Inc., priority 2020, dated 2022).

Series [1] can be described thus: Cell cytotoxicity assay HEK-293T (CellTiter-Glo, 72 hours). Format: cell-based. The following applies: human, HEK-293T cells, read-out: Cytotox K-293 EC50. The source says:
(§1) Cytotoxicity assays. Hepatocyte toxicity, general cytotoxicity or cytotoxicity of unknown mechanism is an undesirable feature for a potential drug, including inhaled drugs. It may be of benefit for an inhaled JAK1 or JAK1/JAK2 inhibitor to have low intrinsic cytotoxicity against various cell types. Typical cell types used to assess cytotoxicity include both primary cells such as human hepatocytes, and proliferating established cell lines such as Jurkat and HEK-293. […] Methods of measuring cytotoxicity are known in the art. In some embodiments, compounds described herein were tested as follows:
(§2) (a) Jurkat and HEK293T cells were maintained at a sub confluent density in T175 flasks. Cells were plated at 450 cells/45 μl medium in Greiner 384 well black/clear tissue culture treated plates. (Greiner Catalog #781091). After dispensing cells, plates were equilibrated at room temperature for 30 minutes. After 30 minutes at room temperature, cells were incubated overnight at 37° C. in a CO2 and humidity controlled incubator. The following day, cells were treated with compounds diluted in 100% DMSO (final DMSO concentration on cells=0.5%) with a 10 point dose-response curve with a top concentration of 50 μM. Cells and compounds were then incubated for 72 hours overnight at 37° C. in a CO2 and humidity controlled incubator. After 72 hours of incubation, viability was measured using CellTiterGlo® (Promega Catalog #G7572) to all wells. After incubation at room temperature for 20 minutes, plates were read on EnVision™ (Perkin Elmer Life Sciences) using luminescence mode;
(§3) A549 (ATCC® CCL-185™), Jurkat clone E6-1 (ATCC® TIB-152™) and HEK-293T (ATCC® CRL-1573™) cells maintained at a sub-confluent density in T175 flasks were used. Cells in exponential growth phase were plated (450 cells in 45 μL of medium) in Greiner 384-well black/clear tissue culture treated plates (Greiner Catalog No. 781091). After dispensing cells, plates were allowed to equilibrate at room temperature for 30 minutes, after which time the cell plates were placed overnight in a 37° C. CO2 and humidity-controlled incubator. The following day, cells were treated with test agent diluted in 100% DMSO (0.5% final DMSO concentration on cells) with a 10-point titration and a top concentration of 50 μM. Cells and compounds were then incubated for 72 hours in a 37° C. CO2 and humidity-controlled incubator, after which time cell viability was measured by adding CellTiter-Glo® (Promega G7572) reagent to all wells. Plates were incubated at room temperature for 20 minutes and then the well luminescence was read on an EnVision plate reader (Perkin Elmer Life Sciences).
A general note: ATP-based viability assays read luminescence as a measure of living cells.

Series [2] relates to JAK1: IL-13-stimulated STAT6 phosphorylation in BEAS-2B cells. Description: P-STAT6 BEAS-2B+IL-13 Cell Assay. It counts as cell-based, human. To be noted: IL-13 stimulation, read-out: Cellular JAK1 PSTAT6 BEAS2B + IL13 IC50. The method in brief: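 BEAS-2B cells in BEGM preincubated 1 h at 37 °C with 10-point, 1:2 compound dilutions, then stimulated 15 min with IL-13 (250 ng/mL stock). Lysate pSTAT6 (Tyr641) captured on total-STAT6 antibody and read by MSD electrochemiluminescence; IC50 from four-parameter logistic fit.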

Series [3] is described as follows: Cell cytotoxicity assay Jurkat (CellTiter-Glo, 72 hours). It counts as cell-based. The following applies: human, Jurkat clone E6-1 cells, read-out: Cytotox Jurkat EC50.
From the text: as §1, §2, §3

The target of series [4] is Recombinant human JAK2 kinase domain protein (Residues 812-1132) (Homo sapiens, UniProt O60674). Put plainly: JAK2 biochemical assay (microfluidic mobility shift, peptide phosphorylation). To be noted: Enzyme JAK2 Ki (nM), 25 μM ATP, 0.2 nM total JAK2.
Chain of Recombinant human JAK2 kinase domain protein (Residues 812-1132) (O60674 812-1132): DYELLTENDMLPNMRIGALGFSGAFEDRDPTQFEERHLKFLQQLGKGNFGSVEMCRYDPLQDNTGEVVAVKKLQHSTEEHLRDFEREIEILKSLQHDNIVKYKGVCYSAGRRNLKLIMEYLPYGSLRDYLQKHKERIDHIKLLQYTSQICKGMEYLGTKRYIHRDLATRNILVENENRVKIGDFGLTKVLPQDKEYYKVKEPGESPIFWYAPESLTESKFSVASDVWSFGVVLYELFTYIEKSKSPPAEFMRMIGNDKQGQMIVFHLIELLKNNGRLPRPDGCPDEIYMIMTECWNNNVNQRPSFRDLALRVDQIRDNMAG
Where [5] appears, read: Table 3, 72 hours, top concentration of 50 μM.
[6] abbreviates: Table 4, methyl-desmethyl analog pairs.

Read-outs that look alike come from different tables or passages of the source.

What is called EC50 is the concentration giving half of the maximal effect. A word on the IC50: it is the concentration needed to halve the response being measured. For orientation: Ki means a dissociation constant, usually derived from enzyme kinetics or from competition with a known ligand. `Cn1cc(NC(=O)c2cnn3cccnc23)c(-c2cc(S(=O)(=O)C3CCCNC3)ccc2OC(F)F)n1` (single isomer, unassigned) [Example 37, N-[3-[2-(difluoromethoxy)-5-(3-piperidylsulfonyl)phenyl]-1-methyl-pyrazol-4-yl]pyrazolo[1,5-a]pyrimidine-3-carboxamide]: the EC50 at 72 h in series [1] (setting [5]) was 31000 nM; in series [3] (setting [5]), at least 50000 nM. Besides, the IC50 in series [2] (Homo sapiens, BEAS-2B) was found to be 46 nM. The inhibition constant Ki in series [4] came out at 0.54 nM.
For `CN(C)CCn1cc(S(=O)(=O)c2ccc(OC(F)F)c(-c3nn(C)cc3NC(=O)c3cnn4cccnc34)c2)cn1` [Example 49, N-[3-[2-(difluoromethoxy)-5-[1-[2-(dimethylamino)ethyl]pyrazol-4-yl]sulfonyl-phenyl]-1-methyl-pyrazol-4-yl]pyrazolo[1,5-a]pyrimidine-3-carboxamide], in that order: 14000 nM, 24000 nM, 28 nM and 0.37 nM.
On to `Cn1cc(NC(=O)c2cnn3cccnc23)c(-c2cc(S(=O)(=O)c3ccn(C)c(=O)c3)ccc2OC(F)F)n1` [Example 44, N-[3-[2-(difluoromethoxy)-5-[(1-methyl-2-oxo-4-pyridyl)sulfonyl]phenyl]-1-methyl-pyrazol-4-yl]pyrazolo[1,5-a]pyrimidine-3-carboxamide], for which the EC50 at 72 h in series [1] (setting [5]) was found to be 7000 nM; in series [3] (setting [5]) it was 11000 nM. Also, the IC50 in series [2] (Homo sapiens, BEAS-2B) worked out at 29 nM. The Ki in series [4] turned out to be 0.34 nM.
For `Cn1cc(NC(=O)c2cnn3cccnc23)c(-c2cc(S(=O)(=O)C3CCC3)ccc2OC(F)F)n1` [Example 2, N-[3-[5-cyclobutylsulfonyl-2-(difluoromethoxy)phenyl]-1-methyl-pyrazol-4-yl]pyrazolo[1,5-a]pyrimidine-3-carboxamide] the same measures were 27500 nM, 38500 nM, 15 nM and 0.2 nM.
In the case of `Cn1cc(NC(=O)c2cnn3cccnc23)c(-c2cc(S(=O)(=O)CCCO)ccc2OC(F)F)n1` [Example 63, N-[3-[2-(difluoromethoxy)-5-(3-hydroxypropylsulfonyl)phenyl]-1-methyl-pyrazol-4-yl]pyrazolo[1,5-a]pyrimidine-3-carboxamide], the EC50 at 72 h came out at 20000 nM in series [1] (setting [5]) and 35000 nM in series [3] (setting [5]). In addition, the IC50 in series [2] (Homo sapiens, BEAS-2B) was 71 nM. For the same compound, the Ki in series [4] was determined as 0.28 nM.
For `Cn1cc(NC(=O)c2cnn3cccnc23)c(-c2cc(S(=O)(=O)C3CC3)ccc2OC(F)F)n1` [Example 22, N-[3-[5-cyclopropylsulfonyl-2-(difluoromethoxy)phenyl]-1-methyl-pyrazol-4-yl]pyrazolo[1,5-a]pyrimidine-3-carboxamide], the results for the EC50 at 72 h in series [1] (setting [5]) and in series [3] (setting [5]) were 43000 nM and at least 50000 nM, respectively. Moreover, the IC50 in series [2] (Homo sapiens, BEAS-2B) worked out at 23 nM. Besides, the Ki in series [4] is 0.19 nM.
For `CN(C)S(=O)(=O)c1ccc(OC(F)F)c(-c2nn(C)cc2NC(=O)c2cnn3cccnc23)c1` [Example 30, N-[3-[2-(difluoromethoxy)-5-(dimethylsulfamoyl)phenyl]-1-methyl-pyrazol-4-yl]pyrazolo[1,5-a]pyrimidine-3-carboxamide] the same measures were 2400 nM, 9200 nM, 11 nM and 0.14 nM.
Turning to `CNS(=O)(=O)c1ccc(OC(F)F)c(-c2nn(C)cc2NC(=O)c2cnn3cccnc23)c1` [Example 26, N-[3-[2-(difluoromethoxy)-5-(methylsulfamoyl)phenyl]-1-methyl-pyrazol-4-yl]pyrazolo[1,5-a]pyrimidine-3-carboxamide], the EC50 at 72 h in series [1] (setting [5]) was 5800 nM; in series [3] (setting [5]), 12000 nM. Also, the IC50 in series [2] (Homo sapiens, BEAS-2B) was 11 nM. The Ki in series [4] came out at 0.097 nM.
For `Cn1cc(NC(=O)c2cnn3cccnc23)c(-c2cc(S(=O)(=O)c3ccccc3)ccc2OC(F)F)n1` [Example 40, N-[3-[5-(benzenesulfonyl)-2-(difluoromethoxy)phenyl]-1-methyl-pyrazol-4-yl]pyrazolo[1,5-a]pyrimidine-3-carboxamide], in that order: at least 50000 nM, at least 50000 nM, 24 nM and 0.11 nM.
Take `Cn1cc(NC(=O)c2cnn3cccnc23)c(-c2cc(S(=O)(=O)N3CCC3)ccc2OC(F)F)n1` [Example 21, N-[3-[5-(azetidin-1-ylsulfonyl)-2-(difluoromethoxy)phenyl]-1-methyl-pyrazol-4-yl]pyrazolo[1,5-a]pyrimidine-3-carboxamide]: the EC50 at 72 h in series [1] (setting [5]) turned out to be 4800 nM; in series [3] (setting [5]), 11000 nM. In series [2] (Homo sapiens, BEAS-2B), the IC50 stood at 14 nM. Further, the Ki in series [4] worked out at 0.16 nM.
For `CC(CO)S(=O)(=O)c1ccc(OC(F)F)c(-c2nn(C)cc2NC(=O)c2cnn3cccnc23)c1` (single isomer, unassigned) [Example 23, N-[3-[2-(difluoromethoxy)-5-(2-hydroxy-1-methyl-ethyl)sulfonyl-phenyl]-1-methyl-pyrazol-4-yl]pyrazolo[1,5-a]pyrimidine-3-carboxamide], the results for the EC50 at 72 h in series [1] (setting [5]) and in series [3] (setting [5]) were 11000 nM and 24000 nM, respectively. For the same compound, the IC50 in series [2] came to 14 nM. Also, the Ki in series [4] was 0.13 nM.
Consider `C[C@H](O)CS(=O)(=O)c1ccc(OC(F)F)c(-c2nn(C)cc2NC(=O)c2cnn3cccnc23)c1` (stereo in doubt) [Example 15, N-[3-[2-(difluoromethoxy)-5-[rac-(2S)-2-hydroxypropyl]sulfonyl-phenyl]-1-methyl-pyrazol-4-yl]pyrazolo[1,5-a]pyrimidine-3-carboxamide], for which the EC50 at 72 h in series [1] (setting [5]) worked out at 25000 nM; in series [3] (setting [5]), 35000 nM. The IC50 in series [2] (Homo sapiens, BEAS-2B) came to 20 nM. Further, the Ki in series [4] amounted to 0.16 nM.
With `Cn1cc(NC(=O)c2cnn3cccnc23)c(-c2cc(S(C)(=O)=O)ccc2OC(F)F)n1` [Example 17, N-[3-[2-(difluoromethoxy)-5-methylsulfonyl-phenyl]-1-methyl-pyrazol-4-yl]pyrazolo[1,5-a]pyrimidine-3-carboxamide], the EC50 at 72 h in series [1] (setting [5]) came out at 7300 nM; in series [1] (setting [6]) it was 7300 nM; in series [3] (setting [5]), 11000 nM; in series [3] (setting [6]) it was 11000 nM. Also, the IC50 in series [2] (Homo sapiens, BEAS-2B) came to 14 nM. Also, in series [4], the Ki amounted to 0.1 nM.
In the case of `Cn1cc(NC(=O)c2cnn3cccnc23)c(-c2cc(S(=O)(=O)C3COC3)ccc2OC(F)F)n1` [Example 13, N-[3-[2-(difluoromethoxy)-5-(oxetan-3-ylsulfonyl)phenyl]-1-methyl-pyrazol-4-yl]pyrazolo[1,5-a]pyrimidine-3-carboxamide], the EC50 at 72 h in series [1] (setting [5]) was 31000 nM; in series [3] (setting [5]), at least 50000 nM. In series [2] (Homo sapiens, BEAS-2B), the IC50 came to 33 nM. In series [4], the inhibition constant (Ki) was found to be 0.19 nM.
For the compound `CC(CO)S(=O)(=O)c1ccc(OC(F)F)c(-c2nn(C)cc2NC(=O)c2cnn3cccnc23)c1` (single isomer, unassigned) [Example 24, N-[3-[2-(difluoromethoxy)-5-(2-hydroxy-1-methyl-ethyl)sulfonyl-phenyl]-1-methyl-pyrazol-4-yl]pyrazolo[1,5-a]pyrimidine-3-carboxamide], in series [2], the 50% inhibitory concentration (IC50) was 30 nM. In series [4], the Ki came out at 0.19 nM.
Turning to `COCCS(=O)(=O)c1ccc(OC(F)F)c(-c2nn(C)cc2NC(=O)c2cnn3cccnc23)c1` [Example 14, N-[3-[2-(difluoromethoxy)-5-(2-methoxyethylsulfonyl)phenyl]-1-methyl-pyrazol-4-yl]pyrazolo[1,5-a]pyrimidine-3-carboxamide], the concentration giving a half-maximal response (EC50) at 72 h in series [1] (setting [5]) is 32000 nM; in series [3] (setting [5]) it was at least 50000 nM. Also, the IC50 in series [2] (Homo sapiens, BEAS-2B) stood at 23 nM.
